Assay results reported in patent US20260076973A1 (priority 2023, published 2026).
pIC50: −log10 of the molar value. Counter-ions that a name gives are not always drawn.

Test system: SARS-CoV-2 (WA1)
Assay: microbe, parasite or virus in culture
Format: cell-based
Conditions: SARS-CoV-2 CPE assay

| Molecule | antiviral effect of positive controls in the CPE assay |
| --- | --- |
| CCN(CC)CCCC(C)Nc1ccnc2cc(Cl)ccc12 (stereo not shown) [Chloroquine, reference compound] | dose dependent antiviral effect |

Same assay, conditions: Severe acute respiratory syndrome coronavirus 2, Vero C1008

| Molecule | pIC50 |
| --- | --- |
| Cc1ccc(Nc2nc(Nc3ccc(C)c(C)c3)nc(N3CCOCC3)n2)cc1 [VIRADEM-11141] | 6.92 |
| Cc1ccc(Nc2nc(Nc3cccc(F)c3)nc(N3CCOCC3)n2)cc1Cl [VIRADEM-12292, N-(3-Chloro-4-methylphenyl)-N^1-(3-fluorophenyl)-6-morpholin-4-yl-[1,3,5]triazine-2,4-diamine] | 6.82 |
| Clc1ccccc1Nc1nc(Nc2ccccc2Cl)nc(N2CCOCC2)n1 [VIRADEM-14303, N,N^1-bis-(2-chlorophenyl)-6-morpholin-4-yl-[1,3,5]triazine-2,4-diamine] | < 6.00 |
| COc1ccc(Nc2nc(Nc3cccc(C)c3)nc(N3CCOCC3)n2)cc1 [hydrochloride] | 6.64 |

Same assay, conditions: Severe acute respiratory syndrome coronavirus 2, Vero C1008, 72 h, reference compounds, SARS-CoV-2 (WA1) CPE assay, Round 2, Vero E6, 72 hours; read-out: Antiviral IC50

| Molecule | pIC50 |
| --- | --- |
| CCN(CC)CCCC(C)Nc1ccnc2cc(Cl)ccc12 (stereo not shown) [Chloroquine, reference compound] | 5.39 |
| CCN(CCO)CCCC(C)Nc1ccnc2cc(Cl)ccc12 (stereo not shown) [Hydroxychloroquine, reference compound] | 5.68 |

Same assay, conditions: Severe acute respiratory syndrome coronavirus 2, Vero C1008, VIRADEM compounds, SARS-CoV-2(WA1) CPE assay, Round 2, concentration range 1000-0.05 nM, Vero E6; read-out: IC50

| Molecule | pIC50 |
| --- | --- |
| COc1ccccc1N1C(N2CCOCC2)=NC(N)=NC1Nc1cc(C)cc(C)c1 (stereo not shown) [VIRADEM-12270, N-(3,5-Dimethylphenyl)-N^1-(2-methoxyphenyl)-6-morpholin-4-yl-[1,3,5]triazine-2,4-diamine hydrochloride] | 6.42 |
| Cc1cc(C)cc(N2C(N3CCCC3)=NC(N)=NC2Nc2cccc(Cl)c2)c1 (stereo not shown) [VIRADEM-12278, N-(3-Chlorophenyl)-N^1-(3,5-dimethylphenyl)-6-pyrrolidin-1-yl-[1,3,5]triazine-2,4-diamine hydrochloride] | < 6.00 |
| CC(=O)c1cccc(Nc2nc(Nc3ccc(C(C)C)cc3)nc(N3CCOCC3)n2)c1 [VIRADEM-12305, 1-{3-[4-(4-Isopropylphenylamino)-6-morpholin-4-yl-[1,3,5]triazin-2-ylamino]-phenyl}-ethanone] | 6.35 |
| CC(C)c1ccc(Nc2nc(N3CCCC3)nc(N3CCCC3)n2)cc1 [VIRADEM-12307, (4,6-Dipyrrolidin-1-yl-[1,3,5]triazin-2-yl)-(4-isopropylphenyl)-amine hydrochloride] | < 6.00 |
| CCc1ccc(Nc2nc(Nc3cc(Cl)cc(Cl)c3)nc(N3CCOCC3)n2)cc1 [VIRADEM-12327, N-(3,5-Dichlorophenyl)-N^1-(4-ethylphenyl)-6-morpholin-4-yl-[1,3,5]triazine-2,4-diamine] | 6.14 |
| COC(=O)c1ccc(Nc2nc(Nc3cccc(OC)c3)nc(N3CCOCC3)n2)cc1 [VIRADEM-12329, 4-[4-(3-Methoxyphenylamino)-6-morpholin-4-yl-[1,3,5]triazin-2-ylamino]-benzoic acid methyl ester] | 7.70 |
| Cc1ccccc1Nc1nc(N2CCOCC2)nc(N2CCOCC2)n1 [VIRADEM-12434, (4,6-Dimorpholin-4-yl-[1,3,5]triazin-2-yl)-o-tolyl-amine] | < 6.00 |
| CC(C)c1ccc(Nc2nc(N3CCOCC3)nc(N3CCOCC3)n2)cc1 [VIRADEM-12435, (4,6-Dimorpholin-4-yl-[1,3,5]triazin-2-yl)-(4-isopropylphenyl)-amine] | < 6.00 |
| CC(C)(C)c1nnc(N2CCOCC2)nc1Nc1ccccc1 [VIRADEM-13044, (6-tert-Butyl-3-morpholin-4-yl-[1,2,4]triazin-5-yl)-phenyl-amine] | < 6.00 |
| COc1ccc(CC(=O)N(N)c2nc(N3CCOCC3)nc(N3CCOCC3)n2)cc1 [VIRADEM-14302, (4-Methoxyphenyl)-acetic acid N1-(4,6-dimorpholin-4-yl-[1,3,5]triazin-2-yl)-hydrazide] | < 6.00 |
| C1CCC(Nc2nc(N3CCOCC3)nc(N3CCOCC3)n2)C1 [VIRADEM-14309, Cyclopentyl-(4,6-dimorpholin-4-yl-[1,3,5]triazin-2-yl)-amine] | < 6.00 |
| Clc1ccc(Oc2nc(N3CCOCC3)nc(N3CCOCC3)n2)cc1 [VIRADEM-15106, 2-(4-Chlorophenoxy)-4,6-dimorpholin-4-yl-[1,3,5]triazine] | < 6.00 |
| c1ccc(CN2CCN(c3nc(N4CCOCC4)nc(N4CCOCC4)n3)CC2)cc1 [VIRADEM-15199, 2-(4-Benzylpiperazin-1-yl)-4,6-dimorpholin-4-yl-[1,3,5]triazine] | < 6.00 |
| c1cc2c(cc1CNc1nc(N3CCOCC3)nc(N3CCOCC3)n1)OCO2 [VIRADEM-15201, Benzo[1,3]dioxol-5-ylmethyl-(4,6-dimorpholin-4-yl-[1,3,5]triazin-2-yl)-amine] | < 6.00 |
| c1ccc(CNc2nc(N3CCOCC3)nc(N3CCOCC3)n2)cc1 [VIRADEM-15209, Benzyl-(4,6-dimorpholin-4-yl-[1,3,5]triazin-2-yl)-amine] | < 6.00 |
| COc1ccc(Nc2nc(N3CCOCC3)nc(N3CCC(C)CC3)n2)cc1 [VIRADEM-15220, (4-Methoxyphenyl)-[4-(4-methylpiperidin-1-yl)-6-morpholin-4-yl-[1,3,5]triazin-2-yl]amine] | < 6.00 |
| Cc1ccc(Nc2nc(N3CCCCCC3)nc(N3CCOCC3)n2)cc1 [VIRADEM-15229, (4-Azepan-1-yl-6-morpholin-4-yl-[1,3,5]triazin-2-yl)-p-tolyl-amine] | 6.07 |
| Cc1ccc(Nc2nc(N3CCOCC3)nc(N3CCC(C)CC3)n2)cc1C [VIRADEM-15231, (3,4-Dimethylphenyl)-[4-(4-methylpiperidin-1-yl)-6-morpholin-4-yl-[1,3,5]triazin-2-yl]-amine] | 6.46 |
| c1coc(CNc2nc(N3CCOCC3)nc(N3CCOCC3)n2)c1 [VIRADEM-15234, (4,6-Dimorpholin-4-yl-[1,3,5]triazin-2-yl)-furan-2-ylmethylamine] | < 6.00 |
| COc1ccc(CCNc2nc(N3CCOCC3)nc(N3CCOCC3)n2)cc1OC [VIRADEM-15243, [2-(3,4-Dimethoxyphenyl)-ethyl]-(4,6-dimorpholin-4-yl-[1,3,5]triazin-2-yl)-amine] | < 6.00 |
| CCc1cccc(Nc2nc(N3CCOCC3)nc(N3CCOCC3)n2)c1 [VIRADEM-15248, (4,6-Dimorpholin-4-yl-[1,3,5]triazin-2-yl)-(3-ethylphenyl)-amine] | < 6.00 |
| COc1ccc(Nc2nc(N3CCOCC3)nc(N3CCCc4ccccc43)n2)cc1 [VIRADEM-15272, [4-(3,4-Dihydro-2H-quinolin-1-yl)-6-morpholin-4-yl-[1,3,5]triazin-2-yl]-(4-methoxyphenyl)-amine] | < 6.00 |
| c1ccc2c(c1)CCN2c1nc(N2CCOCC2)nc(N2CCOCC2)n1 [VIRADEM-15355, 1-(4,6-Dimorpholin-4-yl-[1,3,5]triazin-2-yl)-2,3-dihydro-1H-indole] | < 6.00 |
| COc1ccc(Nc2nc(Nc3ccc(C(N)=O)cc3)nc(N3CCOCC3)n2)cc1 [VIRADEM-15356, 4-[4-(4-Methoxyphenylamino)-6-morpholin-4-yl-[1,3,5]triazin-2-ylamino]-benzamide] | 6.92 |
| NC(=O)C1CCN(c2nc(N3CCOCC3)nc(N3CCOCC3)n2)CC1 [VIRADEM-15361, 1-(4,6-Dimorpholin-4-yl-[1,3,5]triazin-2-yl)-piperidine-4-carboxylic acid amide] | < 6.00 |
| C1CCCN(c2nc(N3CCOCC3)nc(N3CCOCC3)n2)CC1 [VIRADEM-16523, 1-(4,6-Dimorpholin-4-yl-[1,3,5]triazin-2-yl)-azepane] | < 6.00 |

Same assay, conditions: VIRADEM compounds, SARS-CoV-2(WA1) CPE assay, Round 2, concentration range 1000-0.05 nM, Vero E6; read-out: IC50

| Molecule | pIC50 |
| --- | --- |
| Cc1ccc(Nc2nc(N3CCOCC3)nc(N(C)c3ccccc3)n2)cc1C [VIRADEM-15168, N-(3,4-Dimethylphenyl)-N^1-methyl-6-morpholin-4-yl-N^1-phenyl-[1,3,5]triazine-2,4-diamine] | 6.74 |
| c1ccc(CCNc2nc(N3CCOCC3)nc(N3CCOCC3)n2)cc1 [VIRADEM-15230, (4,6-Dimorpholin-4-yl-[1,3,5]triazin-2-yl)-phenetylamine] | 6.34 |
| COc1ccc(Nc2nc(Nc3cccc4ccccc34)nc(N3CCOCC3)n2)cc1 [VIRADEM-15262, N-(4-Methoxyphenyl)-6-morpholin-4-yl-N^1-naphthalen-[1,3,5]triazine-2,4-diamine] | 6.36 |
| Cc1ccc(Nc2nc(N3CCOCC3)nc(N3CCCc4ccccc43)n2)cc1C [VIRADEM-15278, [4-(3,4-Dihydro-2-H-quinolin-1-yl)-6-morpholin-4-yl-[1,3,5]triazin-2-yl]-(3,4-dimethylphenyl)-amine] | 6.92 |
| Cc1ccc(Nc2nc(Nc3cccc4ccccc34)nc(N3CCOCC3)n2)cc1 [VIRADEM-15279, 6-Morpholin-4-yl-N-naphtalen-1-yl-N^1-p-tolyl-[1,3,5]triazine-2,4-diamine] | 7.10 |
| Cc1ccc(S(=O)(=O)NNc2nc(N3CCOCC3)nc(N3CCOCC3)n2)cc1 [VIRADEM-15295, N-(4,6-Dimorpholin-4-yl-[1,3,5]triazin-2-yl)-N^1-tozylhydrazin] | < 6.00 |
| N-(3-Chlorophenyl)-N^1-phenyl)-6-pyrrolidin-1-yl-[1,3,5]triazine-2,4-diamine hydrochloride [VIRADEM-12312] | < 6.00 |
| N-(3-Fluorophenyl)-6-pyrrolidin-1-yl-1,3,5]triazine-2,4-diamine hydrochloride [VIRADEM-12180] | < 6.00 |

Test system: SARS CoV-2 nanoluciferase reporter virus (NLRV)
Assay: microbe, parasite or virus in culture
Format: cell-based
Conditions: Severe acute respiratory syndrome coronavirus 2, A549-ACE2, 72 h

| Molecule | pIC50 | IC90 [nM] |
| --- | --- | --- |
| Cc1ccc(Nc2nc(Nc3ccc(C)c(C)c3)nc(N3CCOCC3)n2)cc1 [VIRADEM-11141] | 7.01 | 118 |
| CC(=O)Nc1ccc(Nc2nc(Nc3ccc(C)c(C)c3)nc(N3CCOCC3)n2)cc1 [VIRADEM-11918, N-{4-[4-(3,4-Dimethylphenylamino)-6-morpholin-4-yl-[1,3,5]triazin-2-ylamino]phenyl}-acetamide] | 7.72 | 29 |

Test system: 229E virus
Assay: 229E coronavirus infection assay in Huh7.5 cells
Format: cell-based
Conditions: Huh7.5, 48 h, read-out: 229E IC50

| Molecule | pIC50 |
| --- | --- |
| Cc1ccc(Nc2nc(Nc3ccc(C)c(C)c3)nc(N3CCOCC3)n2)cc1 [VIRADEM-11141] | 6.59 |

Test system: OC43 virus
Assay: OC43 coronavirus infection assay in Huh7.5 cells
Format: cell-based
Conditions: Betacoronavirus 1, OC43, Huh7.5, 72 h, read-out: OC43 IC50

| Molecule | pIC50 |
| --- | --- |
| Cc1ccc(Nc2nc(Nc3ccc(C)c(C)c3)nc(N3CCOCC3)n2)cc1 [VIRADEM-11141] | 5.78 |

Test system: not listed separately
Assay: Cytotoxicity counter screen in Vero E6 cells (Cell Titer-Glo)
Conditions: African green monkey

| Molecule | CC50 at 72 h [nM] |
| --- | --- |
| CCN(CC)CCCC(C)Nc1ccnc2cc(Cl)ccc12 (stereo not shown) [Chloroquine, reference compound] | > 30000 |

Same assay, conditions: African green monkey, Vero E6 cells

| Molecule | CC50 at 72 h [nM] |
| --- | --- |
| CCN(CCO)CCCC(C)Nc1ccnc2cc(Cl)ccc12 (stereo not shown) [Hydroxychloroquine, reference compound] | > 30000 |
